Read-outs that look alike come from different tables or passages of the source. Marks after values point to notes of the source that are not given here.
Assays:
alpha-glucosidase [1] = target: T1, alpha-glucosidase (Saccharomyces cerevisiae, UniProt P53341); conditions: cited from earlier work; for IC50: ref 13
alpha-amylase = test system: alpha-amylase; design: method as in PMID 31185767; conditions: ref 15; cited from earlier work
alpha-glucosidase [2] = target: T1, alpha-glucosidase; assay: enzyme kinetic study (Lineweaver-Burk and secondary plots); assay type: biochemical; conditions: for inhibition type: Lineweaver-Burk plot; for Ki′: inhibition constant when inhibitor bound with enzyme-substrate complex, secondary plot
Description: The double reciprocal Lineweaver–Burk plot was used to determine the mode of inhibition, while the secondary plots conducted the inhibition constants. […] Briefly, the enzyme inhibition procedure was performed as mention above. The 6 concentrations of pNPG (5–0.1 mM), the fixed enzyme concentration (1 unit/mL), and the 3 concentrations of each effective sample were evaluated for the manner of inhibition.

T1 sequence (P53341 whole entry): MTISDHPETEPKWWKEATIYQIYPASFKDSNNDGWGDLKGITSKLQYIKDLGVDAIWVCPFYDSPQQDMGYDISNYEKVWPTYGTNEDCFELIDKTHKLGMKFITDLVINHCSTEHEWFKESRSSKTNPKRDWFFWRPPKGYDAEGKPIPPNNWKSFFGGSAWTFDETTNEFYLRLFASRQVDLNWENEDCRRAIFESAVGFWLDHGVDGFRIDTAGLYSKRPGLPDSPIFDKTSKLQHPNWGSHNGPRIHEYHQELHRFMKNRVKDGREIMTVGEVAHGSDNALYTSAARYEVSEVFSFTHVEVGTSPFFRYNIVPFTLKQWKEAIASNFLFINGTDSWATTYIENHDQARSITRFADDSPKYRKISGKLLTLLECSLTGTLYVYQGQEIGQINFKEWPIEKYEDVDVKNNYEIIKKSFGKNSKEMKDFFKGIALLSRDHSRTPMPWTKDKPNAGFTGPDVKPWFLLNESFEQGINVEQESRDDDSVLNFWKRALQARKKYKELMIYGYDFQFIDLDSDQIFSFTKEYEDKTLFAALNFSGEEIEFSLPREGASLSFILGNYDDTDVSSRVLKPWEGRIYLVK

Row | SMILES | inhibition type (alpha-glucosidase [2]) | inhibition type (alpha-glucosidase [1]; ref 11, 13) | inhibition type (alpha-glucosidase [1]; ref 12) | IC50 (alpha-glucosidase [1]) | Ki′ (alpha-glucosidase [2]) | further results
1 | COc1cc2ccc(=O)oc2cc1O [Compound 1, scopoletin] | mixed-type | – | – | – | – | inhibition type (alpha-glucosidase [1]; ref 20): competitive; alpha-amylase inhibitory activity (alpha-amylase): potent inhibitory activity; inhibition type (alpha-glucosidase [2]; listed as Scopoletin (1)): Mixed
2 | COc1cc(/C=C/C(=O)NCCc2ccc(O)cc2)ccc1O [Compound 4, N-trans-feruloyltyramine] | Uncompetitive | uncompetitive | non-competitive | 3.58 µM | 51.81 µM | Ki′ (alpha-glucosidase [2]; listed as N-trans-feruloyltyramine (4)): 51.81 ^c µM
3 | C[C@H]1O[C@H](O[C@H]2[C@H](O)[C@@H](O)[C@@H](O[C@H]3[C@H](O)[C@@H](O)C(O)O[C@@H]3CO)O[C@@H]2CO)[C@H](O)[C@@H](O)[C@@H]1N[C@H]1C=C(CO)[C@@H](O)[C@H](O)[C@H]1O (stereo partly drawn) [Acarbose, acarbose, reference compound] | Competitive | – | – | – | – | –
4 | O=C(/C=C/c1ccc(O)cc1)NCCc1ccc(O)cc1 [Compound 5, N-trans-coumaroyltyramine] | Uncompetitive | uncompetitive | non-competitive | 0.58 µM | 1.99 µM | Ki′ (alpha-glucosidase [2]; listed as N-trans-coumaroyltyramine (5)): 1.99 ^c µM
5 | COc1cc(C(=O)O)cc(OC)c1O [Compound 2, syringic acid] | – | – | – | – | – | inhibition type (alpha-glucosidase [1]; ref 9): either in a competitive or an uncompetitive manner

From article PMC8839375, “Alpha-Glucosidase Inhibition and Molecular Docking of Isolated Compounds from Traditional Thai Medicinal Plant, Neuropeltis racemosa Wall” (Molecules, 2022)
